Data as given in patent US8129427B2, “2-phenylethylamino derivatives as calcium and/or sodium channel modulators” (Newron Pharmaceuticals S.p.A., priority 2005, dated 2012).

Biological target: recombinant human N-type channels, h α1B (hCav2.2)+β1b+α2δ-1 subunits (Homo sapiens, UniProt Q00975)
Test: Patch clamp studies of calcium currents inhibition in HEK293 cells
Assay type: cell-based
Conditions: tonic block, preconditioning −50/−55 mV (half maximal steady-state inactivated condition); read-out: IC50 (Vhalf)
Experimental: Functional inhibition of the N-type Ca currents was studied using whole cell patch clamp methods (Hamill O. P., Marty A., Neher E., Sakmann B., Sigworth F. J. Pflugers Arch. (1981) 391: 85-100) on HEK293 cells expressing recombinant human N-type channels, obtained after transient transfection of h α1B (hCav2.2)+β1b+α2δ-1 subunits.
Membrane currents were recorded and filtered at 5 kHz with an Axon Axopatch 200B amplifier and digitized with an Axon Digidata 1322A (Axon Instruments, CA, USA). Voltage clamping of membrane potentials and data acquisition were controlled online with Axon pClamp8 software. Measuring and reference electrodes were AgCl—Ag electrodes. Cells had initial seal resistances of >1 GΩ and access resistances of 4.2±0.2 MΩ. Cells were continuously superfused with extracellular solutions using a Biologic RSC-200.
For calcium currents recording the control bath solution contained (mM): Choline chloride (70), MgCl2 (1), BaCl2 (20), TEA.Cl (50), Hepes (10), Glucose (10). Internal pipette solution consisted of (mM): CsCl (140), EGTA (10), MgCl2 (2), Hepes (10), MgATP (1), GTP Tris (0.3).
Compounds were dissolved as 20 mM stock solutions in DMSO and then diluted to the final concentration in the external solutions.
A two-step protocol was used to determine the voltage dependence of the block:
N-type current was activated by a 600 ms step pulse to +10 mV (test pulse) from a 5000 ms preconditioning potential of −110 mV (resting condition) or −50/−55 mV (half maximal steady-state inactivated condition), respectively.
The amplitude of calcium current peaks evoked by the respective test pulses at a frequency of 0.06 Hz were measured before and after exposure to the test substance. Tonic block of currents was calculated as the difference between the peak calcium current measured at the end of a stabilization period in the control external bath solution and peak currents measured at the end of test substance perfusion period (when steady state is reached) divided by control peaks. […]

recombinant human N-type channels, h α1B (hCav2.2)+β1b+α2δ-1 subunits, sequence (Q00975 whole entry): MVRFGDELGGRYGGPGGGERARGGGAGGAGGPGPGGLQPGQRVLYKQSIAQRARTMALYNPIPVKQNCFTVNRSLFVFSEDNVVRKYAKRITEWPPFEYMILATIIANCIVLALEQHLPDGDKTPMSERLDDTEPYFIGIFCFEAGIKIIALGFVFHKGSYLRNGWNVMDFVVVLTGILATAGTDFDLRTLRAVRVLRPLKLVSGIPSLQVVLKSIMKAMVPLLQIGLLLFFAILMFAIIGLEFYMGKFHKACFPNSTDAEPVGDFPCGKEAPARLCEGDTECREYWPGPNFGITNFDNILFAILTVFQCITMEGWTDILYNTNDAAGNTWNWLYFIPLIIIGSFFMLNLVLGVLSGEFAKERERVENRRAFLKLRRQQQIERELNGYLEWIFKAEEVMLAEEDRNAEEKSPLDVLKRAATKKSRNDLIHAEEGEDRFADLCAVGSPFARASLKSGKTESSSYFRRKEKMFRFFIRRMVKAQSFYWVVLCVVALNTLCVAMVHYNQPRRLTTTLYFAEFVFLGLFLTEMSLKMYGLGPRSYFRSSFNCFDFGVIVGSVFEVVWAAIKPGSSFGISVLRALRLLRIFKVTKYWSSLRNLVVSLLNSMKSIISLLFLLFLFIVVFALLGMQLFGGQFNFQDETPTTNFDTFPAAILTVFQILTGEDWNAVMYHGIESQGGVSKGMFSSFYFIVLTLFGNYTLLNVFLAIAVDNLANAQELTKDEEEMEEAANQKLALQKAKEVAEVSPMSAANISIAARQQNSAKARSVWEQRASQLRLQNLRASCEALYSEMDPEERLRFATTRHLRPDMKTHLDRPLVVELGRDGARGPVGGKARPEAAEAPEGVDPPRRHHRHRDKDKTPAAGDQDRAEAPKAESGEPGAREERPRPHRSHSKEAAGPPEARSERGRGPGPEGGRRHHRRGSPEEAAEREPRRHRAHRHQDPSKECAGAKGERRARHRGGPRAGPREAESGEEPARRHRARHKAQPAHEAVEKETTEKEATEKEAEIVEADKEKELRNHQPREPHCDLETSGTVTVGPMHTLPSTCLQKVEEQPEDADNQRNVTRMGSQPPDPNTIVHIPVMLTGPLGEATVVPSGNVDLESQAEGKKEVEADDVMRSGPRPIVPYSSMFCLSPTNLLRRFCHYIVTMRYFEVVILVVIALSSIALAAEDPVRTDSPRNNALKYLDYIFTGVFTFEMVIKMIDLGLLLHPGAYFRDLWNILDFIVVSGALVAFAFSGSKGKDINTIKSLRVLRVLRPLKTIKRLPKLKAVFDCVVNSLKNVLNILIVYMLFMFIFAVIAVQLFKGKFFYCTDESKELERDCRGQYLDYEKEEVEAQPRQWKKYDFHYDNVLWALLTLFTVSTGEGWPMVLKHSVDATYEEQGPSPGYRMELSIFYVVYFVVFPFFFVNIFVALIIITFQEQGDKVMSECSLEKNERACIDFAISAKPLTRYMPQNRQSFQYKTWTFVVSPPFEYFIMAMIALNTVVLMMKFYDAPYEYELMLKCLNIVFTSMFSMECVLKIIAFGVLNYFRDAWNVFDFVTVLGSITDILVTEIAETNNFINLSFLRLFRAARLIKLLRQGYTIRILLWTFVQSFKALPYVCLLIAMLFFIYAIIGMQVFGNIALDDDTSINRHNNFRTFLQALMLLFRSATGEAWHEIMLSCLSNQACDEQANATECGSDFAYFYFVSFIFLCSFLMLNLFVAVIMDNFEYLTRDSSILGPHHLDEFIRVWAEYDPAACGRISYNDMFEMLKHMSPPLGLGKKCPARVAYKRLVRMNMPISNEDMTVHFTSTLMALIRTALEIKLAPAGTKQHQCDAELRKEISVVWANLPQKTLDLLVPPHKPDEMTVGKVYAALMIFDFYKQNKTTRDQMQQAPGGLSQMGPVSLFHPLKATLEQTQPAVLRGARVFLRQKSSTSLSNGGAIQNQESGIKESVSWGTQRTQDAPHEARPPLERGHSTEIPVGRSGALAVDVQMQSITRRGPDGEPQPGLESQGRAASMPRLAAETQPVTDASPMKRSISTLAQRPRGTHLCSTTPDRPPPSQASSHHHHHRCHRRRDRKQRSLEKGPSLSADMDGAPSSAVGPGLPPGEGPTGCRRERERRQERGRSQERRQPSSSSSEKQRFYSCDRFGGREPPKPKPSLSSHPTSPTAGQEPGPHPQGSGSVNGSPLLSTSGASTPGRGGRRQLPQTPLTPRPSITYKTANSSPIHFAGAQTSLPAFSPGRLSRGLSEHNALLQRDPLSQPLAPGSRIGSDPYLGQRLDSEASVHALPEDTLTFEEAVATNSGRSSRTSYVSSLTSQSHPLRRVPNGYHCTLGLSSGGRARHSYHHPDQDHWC
recombinant human N-type channels, h α1B (hCav2.2)+β1b+α2δ-1 subunits, sequence (Q02641 whole entry partner): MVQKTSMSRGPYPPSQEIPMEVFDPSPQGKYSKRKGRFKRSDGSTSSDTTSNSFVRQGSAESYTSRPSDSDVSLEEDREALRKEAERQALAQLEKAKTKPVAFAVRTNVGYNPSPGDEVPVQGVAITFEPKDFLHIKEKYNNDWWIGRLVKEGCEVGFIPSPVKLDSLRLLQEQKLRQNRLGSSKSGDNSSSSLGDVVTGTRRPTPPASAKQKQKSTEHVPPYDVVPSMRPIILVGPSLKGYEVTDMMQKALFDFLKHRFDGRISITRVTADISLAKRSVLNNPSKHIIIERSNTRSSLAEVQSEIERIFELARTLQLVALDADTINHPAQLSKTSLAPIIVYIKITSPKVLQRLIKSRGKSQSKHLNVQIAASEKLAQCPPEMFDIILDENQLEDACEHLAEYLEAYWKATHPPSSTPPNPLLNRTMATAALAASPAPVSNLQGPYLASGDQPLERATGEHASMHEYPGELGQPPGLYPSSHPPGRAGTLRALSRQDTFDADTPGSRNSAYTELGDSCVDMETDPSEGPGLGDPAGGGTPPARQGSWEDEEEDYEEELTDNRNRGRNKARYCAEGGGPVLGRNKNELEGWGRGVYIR
recombinant human N-type channels, h α1B (hCav2.2)+β1b+α2δ-1 subunits, sequence (P54289 25-956 partner limits assumed): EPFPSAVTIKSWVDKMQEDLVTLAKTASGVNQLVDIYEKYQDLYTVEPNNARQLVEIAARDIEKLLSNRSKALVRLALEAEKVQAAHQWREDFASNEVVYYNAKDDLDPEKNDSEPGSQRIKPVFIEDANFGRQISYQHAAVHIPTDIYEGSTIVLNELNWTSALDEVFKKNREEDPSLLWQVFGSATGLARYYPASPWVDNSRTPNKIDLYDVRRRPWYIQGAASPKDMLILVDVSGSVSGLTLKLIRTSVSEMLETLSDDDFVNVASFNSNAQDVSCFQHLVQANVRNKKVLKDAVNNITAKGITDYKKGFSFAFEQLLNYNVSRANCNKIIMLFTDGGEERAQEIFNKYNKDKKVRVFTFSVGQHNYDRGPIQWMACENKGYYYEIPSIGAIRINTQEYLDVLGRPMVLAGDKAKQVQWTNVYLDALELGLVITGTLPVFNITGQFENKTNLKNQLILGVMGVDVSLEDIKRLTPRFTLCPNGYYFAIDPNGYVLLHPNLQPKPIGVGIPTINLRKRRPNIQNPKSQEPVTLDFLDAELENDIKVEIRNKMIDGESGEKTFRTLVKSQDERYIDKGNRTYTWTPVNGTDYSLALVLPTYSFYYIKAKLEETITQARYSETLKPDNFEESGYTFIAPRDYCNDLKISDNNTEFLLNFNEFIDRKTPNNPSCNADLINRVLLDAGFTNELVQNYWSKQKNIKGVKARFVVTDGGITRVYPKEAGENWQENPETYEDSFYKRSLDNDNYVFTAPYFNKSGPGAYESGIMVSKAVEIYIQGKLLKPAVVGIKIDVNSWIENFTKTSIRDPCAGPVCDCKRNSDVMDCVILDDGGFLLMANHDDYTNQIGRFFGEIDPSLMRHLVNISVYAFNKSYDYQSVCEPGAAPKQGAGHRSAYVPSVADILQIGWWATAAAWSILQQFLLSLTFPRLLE
recombinant human N-type channels, h α1B (hCav2.2)+β1b+α2δ-1 subunits, sequence (P54289 957-1103 partner limits assumed): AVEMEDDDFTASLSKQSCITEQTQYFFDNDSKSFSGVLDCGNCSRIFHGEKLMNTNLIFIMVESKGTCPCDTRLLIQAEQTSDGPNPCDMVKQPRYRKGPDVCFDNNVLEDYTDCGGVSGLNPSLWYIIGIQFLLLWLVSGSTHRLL

`C[C@H](NCc1ccc(OCc2ccccc2F)cc1)C(N)=O` [ralfinamide, (S)-(+)-2-[4-(2-fluoro-benzyloxy)-benzylamino]-propanamide, reference compound] gave an IC50 of 15 µM.
